Laboratory results taken from patent US12122774B2, “Compounds as MYT1 inhibitors” (WIGEN BIOMEDICINE TECHNOLOGY (SHANGHAI) CO., LTD., priority 2022, dated 2024).
≈ marks a conversion by molar mass, not a printed value. One block for each molecule: values may come before it.

Columns and labels:
[1] = tested on: MIA PaCa-2 cells; experiment: In vitro anti-proliferative activity against MIA PaCa-2 cells (compound alone); format: cell-based; details: intracellular ATP content
Description: (§1) MIA PaCa-2 cells were seeded on a 384-well plate at 3000 cells/well. After overnight adherence culture, DMSO or the compounds serially diluted 1:5 from 10 µM were added. The viability was assessed 72 h after dosing by measuring the intracellular ATP content. The inhibition percentage of viable cells by the compounds was calculated by comparing with the DMSO group, and the IC50 value was calculated.

[2] = In vivo pharmacokinetic experiment; set-up: species or system CD-1 female mice; details: mice
Description: CD-1 female mice aged 7 to 10 weeks were intravenously administered and orally administered at a dose of 2 mg/kg and 10 mg/kg, respectively. The mice were fasted for at least 12 h before the administration and given food 4 h after the administration, and they were given ad libitum access to water during the experiment. On the day of the experiment, animals in the intravenous group were administered the corresponding compound by single injection via the tail vein at an administration volume of 10 mL/kg. Animals in the oral group were administered the corresponding compound by single intragastric injection at an administration volume of 10 mL/kg. The animals were weighed before administration, and the administration volume was calculated according to the body weight. The sample collection time was 0.083 h (injection group), 0.167 h, 0.5 h, 1 h, 2 h, 4 h, 8 h, and 24 h. About 200 μL of whole blood was collected through the submaxillary venous plexus at each time point and used to prepare plasma for concentration determination by high-performance liquid chromatography-tandem mass spectrometry (LC-MS/MS). All animals were euthanized with CO2 anesthesia after the PK samples were collected at the last time point. The plasma concentrations were processed using a non-compartmental model of Phoenix WinNonlin™ version 8.3 (Certara) pharmacokinetic software, and the pharmacokinetic parameters were calculated using a linear-log trapezoidal method.

[3] = In vitro stability experiment (HPLC purity of filtrate); format: physicochemical
Description: (§2) Preparation of a standard curve: 10.01 mg of sample was weighed out and placed in a volumetric flask, and the volume was brought to 10 mL with acetonitrile/water (v/v, 9/1) to prepare 1.001 mg/mL of standard solution; the standard solution was then serially diluted to 0.5005 mg/mL, 0.1001 mg/mL, 0.05005 mg/mL, 0.01001 mg/mL, and 0.001001 mg/mL to generate the standard curve, and a linear equation was fitted by taking the peak area of the sample as a vertical axis and the concentration as a horizontal axis. Solubility and stability test: 15 mg of sample was added to 3 mL of vehicle (FaSSIF, FeSSIF, SGF, or water) to prepare a corresponding suspension at a target concentration of 5 mg/mL. The prepared suspension was stirred on a shaker (800 rpm) at 37° C. for 0.5 h, and the suspension was then filtered. The filtrate was diluted with a diluent to a corresponding multiple so that the peak height could not exceed the standard curve, and the solubility and purity were detected using HPLC.

[4] = In vitro solubility experiment; format: physicochemical; details: organic solvent or mixture, thermodynamic from solid
[5] = In vitro solubility experiment; format: physicochemical; details: for solubility at 0.5 h: thermodynamic from solid
Description: as §2

[6] = tested on: P-glycoprotein (P-gp, MDR1); experiment: in vitro; details: dog
Description: (§3) In vitro passive permeability or the ability to serve as a P-glycoprotein (P-gp) transport substrate was tested using MDCK cells (MDCK wild type) or MDCK cells stably transduced with MDR1 (MDCK-MDR1), respectively. The permeability experiment was performed in duplicate in a transwell system at a single concentration (5 μM). The cells were incubated for 90 min. Apical-to-basolateral (A to B, A-B) transport and basolateral-to-apical (B to A, B-A) transport of the corresponding compound were determined, and the permeation rate (apparent permeability) (Papp×10^−6 cm/sec) and efflux ratio (Papp (B-A)/Papp (A-B)) of the test compound were calculated.

[7] = tested on: MDCK cells stably transduced with MDR1 (MDCK-MDR1); experiment: in vitro; details: MDCK-MDR1
Description: as §3

[8] = tested on: MIA PaCa-2 cells; experiment: In vitro anti-proliferative activity in combination with gemcitabine against MIA PaCa-2 cells; format: cell-based; details: for IC50: read-out: Anti-proliferative activity against MIA PaCa-2 cells (20 nM gemcitabine) IC50, with 20 nM gemcitabine, 72 h, intracellular ATP content
Description: as §1, with “cells/well, and 20 nM gemcitabine was added.” for “cells/well.”, “1000 nM” for “10 µM”

[9] = in vitro; details: dog, MDCK
Description: as §3

[10] = molecular target: T1, Recombinant MYT1 protein (Homo sapiens, UniProt Q99640); experiment: In vitro assay for inhibiting MYT1 kinase activity (ADP-GLO); format: biochemical; details: 10 μM ATP, read-out: Inhibitory activity against recombinant protein MYT1 IC50
T1 sequence (Q99640 1-499): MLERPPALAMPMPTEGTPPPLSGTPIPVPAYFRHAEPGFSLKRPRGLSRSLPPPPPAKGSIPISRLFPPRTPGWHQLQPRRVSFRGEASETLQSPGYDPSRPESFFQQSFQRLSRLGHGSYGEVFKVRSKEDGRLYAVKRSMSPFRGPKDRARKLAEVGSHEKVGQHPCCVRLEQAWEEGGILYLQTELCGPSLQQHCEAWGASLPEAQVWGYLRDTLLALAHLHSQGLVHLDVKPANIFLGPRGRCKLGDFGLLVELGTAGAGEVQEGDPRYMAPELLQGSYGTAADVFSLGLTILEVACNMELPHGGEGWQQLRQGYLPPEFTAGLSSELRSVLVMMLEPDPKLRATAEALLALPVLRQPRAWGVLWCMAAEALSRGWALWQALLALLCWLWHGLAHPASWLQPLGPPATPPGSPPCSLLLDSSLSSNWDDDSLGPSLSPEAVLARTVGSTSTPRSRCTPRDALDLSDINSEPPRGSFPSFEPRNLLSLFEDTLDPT
Description: Recombinant MYT1 protein and the compounds were pre-incubated at room temperature for 15 min, and 10 μM ATP was then added to start the reaction. The mixture was incubated at room temperature for another 60 min, and the ADP-GLO reagent from Promega was then added. The resulting mixture was incubated in the dark for 40 min, a detection solution was then added, and the mixture was incubated for another 45-60 min. The chemiluminescence was determined using ENVISION. The inhibition rate and IC50 were calculated compared to the DMSO group.

[11] = female, CD-1, mouse, plasma, iv, injection 2 mg/kg
[12] = female, CD-1, mouse, plasma, oral administration 10 mg/kg
[13] = FaSSIF, initial pH 6.52, 37° C.
[14] = FeSSIF, initial pH 4.98, 37° C.

IC50 ([1]; 72 h): > 10 µM
SMILES: Cc1cc2c(C(N)=O)c(N)n(-c3c(C)c(O)cc4c3CCC4)c2nc1C (atropisomer, axis not shown) [Compound 117]

AUC(0-t) [2, 11]: 338 ng·h/mL
half-life [2, 11]: 199 min
Vd ([2]; female, CD-1, mouse, plasma, iv, injection 2 mg/kg, read-out: Vdss): 6.76 L/kg
AUC(0-t) [2, 12]: 638 ng·h/mL
Cmax [2, 12]: 603 ng/mL
half-life [2, 12]: 230 min
Cl ([2]; injection 2 mg/kg): 94.4 mL/min/kg
F % ([2]; oral administration 10 mg/kg): 44.5%
Stability compared to RP-6306 ([3]; FaSSIF, FeSSIF, and water, in words): more stable than RP-6306
HPLC purity 0.5 h [3, 13]: 88.76 %, 220 nm
HPLC purity 0.5 h [3, 14]: 95.98 %, 220 nm
HPLC purity 0.5 h ([3]; SGF, initial pH 1.2, 37° C.): 98.69 %, 220 nm
HPLC purity 0.5 h ([3]; Water, initial pH 7.7, 37° C.): 96.4 %, 220 nm
solubility at 0.5 h ([4]; methanol): 40.6 mg/mL (≈ 118 mM)
solubility at 0.5 h ([4]; tetrahydrofuran): 6.11 mg/mL (≈ 17.9 mM)
Solubility compared to RP-6306 ([5]; FaSSIF, FeSSIF, SGF, water, methanol, and tetrahydrofuran, in words): higher solubility in various vehicles
solubility at 0.5 h ([5]; simulated gastric fluid, SGF, initial pH 1.2, 37° C.): 4860 µg/mL (≈ 14.2 mM)
solubility at 0.5 h [5, 13]: 61 µg/mL (≈ 0.178 mM)
solubility at 0.5 h [5, 14]: 327 µg/mL (≈ 0.955 mM)
solubility at 0.5 h ([5]; Water, initial pH 7.7, 37° C.): 270 µg/mL (≈ 0.789 mM)
IC50 ([1]; Homo sapiens, MIA PaCa-2, 72 h): 4.32 µM
efflux ratio at 90 min, 5 μM ([6]; MDCK-MDR1): 1.71
Papp A→B at 90 min, 5 µM ([6]; MDCK-MDR1, Papp Mean): 20.5 ×10⁻⁶ cm/s
Papp B→A at 90 min, 5 µM ([6]; MDCK-MDR1, Papp Mean): 35 ×10⁻⁶ cm/s
Papp A→B at 90 min, 5 µM ([6]; MDCK-MDR1, Papp Sample - 01): 21.1 ×10⁻⁶ cm/s
Papp B→A at 90 min, 5 µM ([6]; MDCK-MDR1, Papp Sample - 01): 35.3 ×10⁻⁶ cm/s
Papp A→B at 90 min, 5 µM ([6]; MDCK-MDR1, Papp Sample - 02): 19.9 ×10⁻⁶ cm/s
Papp B→A at 90 min, 5 µM ([6]; MDCK-MDR1, Papp Sample - 02): 34.8 ×10⁻⁶ cm/s
Permeability compared to RP-6306 [7]: superior permeability to that of RP-6306
IC50 [8]: 18 nM
efflux ratio at 90 min, 5 μM [9]: 1.56
Papp A→B at 90 min, 5 µM ([9]; Papp Mean): 27.1 ×10⁻⁶ cm/s
Papp B→A at 90 min, 5 µM ([9]; Papp Mean): 42.2 ×10⁻⁶ cm/s
Papp A→B at 90 min, 5 µM ([9]; Papp Sample - 01): 27.9 ×10⁻⁶ cm/s
Papp B→A at 90 min, 5 µM ([9]; Papp Sample - 01): 40 ×10⁻⁶ cm/s
Papp A→B at 90 min, 5 µM ([9]; Papp Sample - 02): 26.3 ×10⁻⁶ cm/s
Papp B→A at 90 min, 5 µM ([9]; Papp Sample - 02): 44.5 ×10⁻⁶ cm/s
SMILES: Cc1cc2c(C(N)=O)c(N)n(-c3c(C)c(O)cc(F)c3C)c2nc1C (single isomer, unassigned) [Compound 2]
Half-life T1/2 compared to RP-6306 ([2]; in words): longer half-life T1/2 compared to RP-6306
Vdss compared to RP-6306 ([2]; in words): greater increase in Vdss compared to RP-6306
Anti-proliferative activity against MIA PaCa-2 cells in combination with gemcitabine ([8]; in words): stronger anti-proliferative activity than that of RP-6306

IC50 ([1]; Homo sapiens, MIA PaCa-2, 72 h): > 10 µM
IC50 [8]: ≥ 1230 nM
SMILES: Cc1cc2c(C(N)=O)c(N)n(-c3c(C)c(O)cc(F)c3C)c2nc1C [Compound 3]

IC50 ([1]; Homo sapiens, MIA PaCa-2, 72 h): > 10 µM
SMILES: Cc1cc2c(C(N)=O)c(N)n(-c3c(C)ccc(O)c3C)c2nc1C#N [Compound 12]

IC50 ([1]; Homo sapiens, MIA PaCa-2, 72 h): > 10 µM
SMILES: Cc1cc2c(C(N)=O)c(N)n(-c3c(C)c(O)cc4c3CCC4)c2nc1C [Compound 116]

IC50 [10]: 200 to 500 nM
SMILES: Cc1cc2c(C(N)=O)c(N)n(-c3c(C)c(O)cc4c3CCCC4)c2nc1C [Compound 127]
